Results from patent US7563621B2, “Absorbing organic reagents into diagnostic test devices by formation of amine salt complexes” (Siemens Healhcare Diagnostics Inc, priority 2003, dated 2009).
“And” between values parts separate entries of the source, which are not always exact repeats. Equal entries are not always repeated. Structures can show the parent of a compound that is named as a salt.

Columns and labels:
[1] = Butanol/water partitioning of pyrogallol red dye salts (Example 3); format: physicochemical; settings: 276 nm; for Absorbance of Dye Salt in Butanol: butanol layer; for Absorbance of Dye Salt in Water: water layer
Method: Extractions were then performed in Mixxor extractors.

[2] = system: Lambda Light Chain; test: Automated protein assay with pyrogallol red salts, 74 μM (Example 6); settings: Series #1 and #2; for Percent Detection as Percentage of HSA Detection: Lambda Light Chain; for average net absorbance at 600 nm after subtracting PBS sample reaction result: Lambda Light Chain 25 mg/dL, 10 minutes, 37° C, 900 nm baseline subtracted
Method: (§1) The dilutor was programmed for reactions of 180 μL reagent+40 μL sample. […] The samples were phosphate buffered saline (blank), human serum albumin (HSA) 25 mg/dL, and other proteins (i.e., human IgG, […], and Lambda Light Chain) at 25 mg/dL. Absorbance data were collected on a Biotek, Powerwave X Microplate Absorbance reader using BioTek “KC Jr” software to determine the relative detection of the different proteins (i.e., HSA, human IgG, […], and Lambda Light Chain) using salts of pyrogallol red. Two sets of replicates of the different proteins were run. […] The protein response was determined by subtracting the phosphate buffered saline sample reaction result from the protein reaction result. […] The results for protein equivalence of the non-albumin proteins were expressed as a percentage of the protein colorimetric response to HSA as shown in Table 11 below.

[3] = system: human IgG; test: as above; settings: Series #1 and #2; for average net absorbance at 600 nm after subtracting PBS sample reaction result: IgG 25 mg/dL, 10 minutes, 37° C, 900 nm baseline subtracted; for Percent Detection as Percentage of HSA Detection: IgG
Method: as §1

[4] = biological target: Tamm-Horsfall (Homo sapiens, UniProt P07911); test: as above; settings: Series #1 and #2; for average net absorbance at 600 nm after subtracting PBS sample reaction result: Tamm-Horsfall 25 mg/dL, 10 minutes, 37° C, 900 nm baseline subtracted; for Percent Detection as Percentage of HSA Detection: Tamm-Horsfall
Method: as §1

[5] = biological target: human serum albumin (HSA) (Homo sapiens, UniProt P02768); test: as above; settings: HSA 25 mg/dL; 10 minutes, 37° C; 900 nm baseline subtracted; Series #1 and #2
Method: The dilutor was programmed for reactions of 180 μL reagent+40 μL sample. […] The samples were phosphate buffered saline (blank), human serum albumin (HSA) 25 mg/dL, and other proteins (i.e., human IgG, […], and Lambda Light Chain) at 25 mg/dL. Absorbance data were collected on a Biotek, Powerwave X Microplate Absorbance reader using BioTek “KC Jr” software to determine the relative detection of the different proteins (i.e., HSA, human IgG, […], and Lambda Light Chain) using salts of pyrogallol red. Two sets of replicates of the different proteins were run. […] The protein response was determined by subtracting the phosphate buffered saline sample reaction result from the protein reaction result.

[6] = Butanol/water partitioning of dye salts (Example 2); settings: 8-anilino-1-sulfonic acid salts
Method: The five dye solutions were then treated with 1 equivalent of each base listed in Tables 1-5 (i.e., sodium hydroxide, TRIS, and triethylamine) to form salt solutions (i.e., sodium salt solutions, TRIS salt solutions, and triethylamine salt solutions respectively).
A 50 μL portion of each salt solution was then mixed with 950 μL water and 1000 μL butanol. […] Where necessary to deal with lingering interface phases, the samples were centrifuged.
Tests were then performed on the respective salt solutions to determine whether the salts of the respective dyes dissolved preferentially in butanol (a more lipophilic solvent) or water (a less lipophilic solvent). […] Spectroscopy versus the butanol blank or the water blank was done as 50 μL upper (butanol) or lower (aqueous) phase plus 950 μL corresponding solvent. All absorbances were blanked on solvent in a quartz cuvette and were baseline corrected at an absorbance of 900 nm before subsequent calculations to correct for cuvette placement, dust, etc. All absorbances were then measured at the wavelengths noted below.
Before determining the butanol to water absorbance levels, the absorbance of the solute in butanol was corrected for solvent dependent shifts in wavelength maximum and intensity based on the reference spectra of known gravimetric quantities of the dye salts in butanol and water. For such cases, the partition ratio of butanol absorbance to water absorbance was calculated using the following formula: Partition Ratio=Sample Absorbance in Butanol×Intensity Factor/Sample Absorbance in Water where the intensity factor was calculated using the following formula: Intensity Factor=Reference Sample Absorbance at λmax in water/Reference Sample Absorbance at λmax in butanol The intensity factor adjusts for those cases where the same concentration of dye in the two different solvents produced two different absorbances.

Sequence of human serum albumin (HSA) (P02768 25-609): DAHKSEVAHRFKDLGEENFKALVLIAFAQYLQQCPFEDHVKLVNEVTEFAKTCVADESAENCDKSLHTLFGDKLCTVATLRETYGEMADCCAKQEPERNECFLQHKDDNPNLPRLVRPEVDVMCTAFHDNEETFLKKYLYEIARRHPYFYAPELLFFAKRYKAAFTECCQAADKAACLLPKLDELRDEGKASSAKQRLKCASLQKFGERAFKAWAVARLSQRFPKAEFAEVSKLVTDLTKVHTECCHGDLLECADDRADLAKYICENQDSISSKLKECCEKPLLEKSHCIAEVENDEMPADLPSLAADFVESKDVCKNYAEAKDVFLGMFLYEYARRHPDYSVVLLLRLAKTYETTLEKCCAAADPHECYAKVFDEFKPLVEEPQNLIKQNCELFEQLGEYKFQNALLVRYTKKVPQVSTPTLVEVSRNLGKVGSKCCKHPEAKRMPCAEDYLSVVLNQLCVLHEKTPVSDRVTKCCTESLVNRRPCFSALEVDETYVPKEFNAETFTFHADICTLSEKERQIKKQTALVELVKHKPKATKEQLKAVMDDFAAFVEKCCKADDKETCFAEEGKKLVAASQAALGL

Compound: O=c1ccc2c(-c3ccccc3S(=O)(=O)O)c3ccc(O)c(O)c3oc-2c1O [Triethanolamine Salt, pyrogallol red]
- Ratio of Butanol Absorbance to Water Absorbance ([1]; Triethanolamine): 0.15
- Absorbance of Dye Salt in Butanol ([1]; Triethanolamine): 0.044
- Absorbance of Dye Salt in Water ([1]; Triethanolamine): 0.296

Compound: O=c1ccc2c(-c3ccccc3S(=O)(=O)O)c3ccc(O)c(O)c3oc-2c1O [Triethylamine Pyrogallol Red Salt, pyrogallol red]
- Percent Detection as Percentage of HSA Detection [2]: 3% and 9%
- average net absorbance at 600 nm after subtracting PBS sample reaction result [3]: 0.0285 and 0.0284
- Percent Detection as Percentage of HSA Detection [3]: 48% and 51%
- average net absorbance at 600 nm after subtracting PBS sample reaction result [4]: 0.0135 and 0.0109
- Percent Detection as Percentage of HSA Detection [4]: 22% and 19%
- average net absorbance at 600 nm after subtracting PBS sample reaction result [5]: 0.0559 and 0.0600
- Ratio of Butanol Absorbance to Water Absorbance ([1]; Triethylamine): 0.23
- Absorbance of Dye Salt in Butanol ([1]; Triethylamine): 0.063
- Absorbance of Dye Salt in Water ([1]; Triethylamine): 0.274

Compound: pyrogallol red [Triethylamine Pyrogallol Red Salt]
- Percent Detection as Percentage of HSA Detection ([2]; listed as triethylammonium): 3%

Compound: O=c1ccc2c(-c3ccccc3S(=O)(=O)O)c3ccc(O)c(O)c3oc-2c1O [TRIS Pyrogallol Red Salt, pyrogallol red]
- average net absorbance at 600 nm after subtracting PBS sample reaction result [2]: 0.0030
- Percent Detection as Percentage of HSA Detection [2]: 4%
- average net absorbance at 600 nm after subtracting PBS sample reaction result [3]: 0.0410
- Percent Detection as Percentage of HSA Detection [3]: 55%
- average net absorbance at 600 nm after subtracting PBS sample reaction result [4]: 0.0175
- Percent Detection as Percentage of HSA Detection [4]: 23%
- average net absorbance at 600 nm after subtracting PBS sample reaction result [5]: 0.0750
- Ratio of Butanol Absorbance to Water Absorbance ([1]; TRIS): 0.13
- Absorbance of Dye Salt in Butanol ([1]; TRIS): 0.041
- Absorbance of Dye Salt in Water ([1]; TRIS): 0.326

Compound: O=S(=O)(O)c1cccc2cccc(Nc3ccccc3)c12 [8-Anilino-1-Sulfonic Acid, Triethylamine, 8-anilino-1-sulfonic acid]
- Raw Ratio of Butanol Absorbance to Water Absorbance [6]: 3.4
- Absorbance of Base in Butanol ([6]; butanol layer, λmax 269 nm): 0.156
- Partition Ratio of Butanol Absorbance to Water Absorbance ([6]; corrected by intensity factor): 3.5
- Intensity Factor (IF) ([6]; reference absorbance in water / in butanol): 1.01
- Absorbance of Base in Water ([6]; water layer, λmax 265 nm): 0.045

Compound: pyrogallol red [Glucamine Pyrogallol Red Salt]
- Percent Detection as Percentage of HSA Detection [2]: 14%

Compound: O=c1ccc2c(-c3ccccc3S(=O)(=O)O)c3ccc(O)c(O)c3oc-2c1O [Glucamine Pyrogallol Red Salt, pyrogallol red]
- average net absorbance at 600 nm after subtracting PBS sample reaction result [2]: 0.0088
- Percent Detection as Percentage of HSA Detection [2]: 14%
- average net absorbance at 600 nm after subtracting PBS sample reaction result [3]: 0.0318
- Percent Detection as Percentage of HSA Detection [3]: 51%
- average net absorbance at 600 nm after subtracting PBS sample reaction result [4]: 0.0123
- Percent Detection as Percentage of HSA Detection [4]: 20%
- average net absorbance at 600 nm after subtracting PBS sample reaction result [5]: 0.0618
- Ratio of Butanol Absorbance to Water Absorbance ([1]; Glucamine): 0.09
- Absorbance of Dye Salt in Butanol ([1]; Glucamine): 0.030
- Absorbance of Dye Salt in Water ([1]; Glucamine): 0.328
